Results from PubChem BioAssay (NCI).
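Tested at 5 concentrations; 48 h exposure; 96-well plates; endpoints linearly interpolated, else capped at highest concentration. GI50 = concentration required for 50% inhibition of growth. TGI is the concentration that stops growth completely.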

Key:
Experiment in all cases: NCI tumour cell line growth inhibition, 48 h
UO-31 renal = test system: UO-31 renal
NCI-H460 lung = test system: NCI-H460 lung
RXF 393 renal = test system: RXF 393 renal
TK-10 renal = test system: TK-10 renal
M14 melanoma = test system: M14 melanoma
LOX IMVI melanoma = test system: LOX IMVI melanoma
SF-268 CNS = test system: SF-268 CNS
HOP-62 NSCLC = test system: HOP-62 NSCLC
SNB-19 CNS = test system: SNB-19 CNS
NCI/ADR-RES ovarian = test system: NCI/ADR-RES ovarian
RPMI-8226 leukemia = test system: RPMI-8226 leukemia
SF-539 CNS = test system: SF-539 CNS
NCI-H23 lung = test system: NCI-H23 lung
HOP-92 NSCLC = test system: HOP-92 NSCLC
786-0 renal = test system: 786-0 renal
MCF7 breast = test system: MCF7 breast
CCRF-CEM leukemia = test system: CCRF-CEM leukemia
ACHN renal = test system: ACHN renal
HS 578T breast = test system: HS 578T breast
SW-620 colon = test system: SW-620 colon
SK-MEL-5 melanoma = test system: SK-MEL-5 melanoma
SK-MEL-2 melanoma = test system: SK-MEL-2 melanoma
U251 CNS = test system: U251 CNS
HCT-15 colon = test system: HCT-15 colon
MALME-3M melanoma = test system: MALME-3M melanoma
SK-OV-3 ovarian = test system: SK-OV-3 ovarian
MDA-MB-435 = test system: MDA-MB-435
SNB-75 CNS = test system: SNB-75 CNS
DU-145 prostate = test system: DU-145 prostate
CAKI-1 renal = test system: CAKI-1 renal
OVCAR-8 ovarian = test system: OVCAR-8 ovarian
HCC-2998 colon = test system: HCC-2998 colon
SR leukemia = test system: SR leukemia
BT-549 breast = test system: BT-549 breast
PC-3 prostate = test system: PC-3 prostate
A498 renal = test system: A498 renal
OVCAR-4 ovarian = test system: OVCAR-4 ovarian
HCT-116 colon = test system: HCT-116 colon
UACC-62 melanoma = test system: UACC-62 melanoma
A549 NSCLC = test system: A549 NSCLC
MDA-MB-231 breast = test system: MDA-MB-231 breast
K-562 leukemia = test system: K-562 leukemia
NCI-H522 lung = test system: NCI-H522 lung
T-47D breast = test system: T-47D breast
SF-295 CNS = test system: SF-295 CNS
SK-MEL-28 melanoma = test system: SK-MEL-28 melanoma
SN12C renal = test system: SN12C renal
HL-60(TB) leukemia = test system: HL-60(TB) leukemia
MOLT-4 leukemia = test system: MOLT-4 leukemia
KM12 colon = test system: KM12 colon
OVCAR-5 ovarian = test system: OVCAR-5 ovarian
HT29 colon = test system: HT29 colon
IGROV1 ovarian = test system: IGROV1 ovarian
NCI-H226 lung = test system: NCI-H226 lung
UACC-257 melanoma = test system: UACC-257 melanoma
COLO 205 colon = test system: COLO 205 colon
OVCAR-3 ovarian = test system: OVCAR-3 ovarian

Cn1cc(C2=C(c3cccc(N)c3)C(=O)NC2=O)c2ccccc21 was tested. Which GI50 (UO-31 renal) did it give?
Its GI50 is 14.1 µM.

What about the TGI (UO-31 renal) of the same compound?
The TGI was over 25 µM.

And the GI50 (NCI-H460 lung)?
Its GI50 is 13.6 µM.

What about the TGI (NCI-H460 lung) of the same compound?
The TGI was over 25 µM.

What about the GI50 (RXF 393 renal) of the same compound?
Its GI50 is 3.63 µM.

What about the TGI (RXF 393 renal) of the same compound?
The TGI was over 17.7 µM.

What about the GI50 (TK-10 renal) of the same compound?
The GI50 was over 25 µM.

And the TGI (TK-10 renal)?
Its TGI is over 25 µM.

What about the GI50 (M14 melanoma) of the same compound?
The GI50 was over 25 µM.

What about the TGI (M14 melanoma) of the same compound?
Its TGI is over 25 µM.

What about the GI50 (LOX IMVI melanoma) of the same compound?
The GI50 was 8.76 µM.

What about the TGI (LOX IMVI melanoma) of the same compound?
Its TGI is over 25 µM.

And the GI50 (SF-268 CNS)?
The GI50 was 24.6 µM.

And the TGI (SF-268 CNS)?
The TGI was over 25 µM.

And the GI50 (HOP-62 NSCLC)?
Its GI50 is 9.5 µM.

And the TGI (HOP-62 NSCLC)?
Its TGI is over 25 µM.

What about the GI50 (SNB-19 CNS) of the same compound?
Its GI50 is over 25 µM.

And the TGI (SNB-19 CNS)?
The TGI was over 25 µM.

And the GI50 (NCI/ADR-RES ovarian)?
Its GI50 is over 19.7 µM.

What about the TGI (NCI/ADR-RES ovarian) of the same compound?
Its TGI is over 25 µM.

And the GI50 (RPMI-8226 leukemia)?
Its GI50 is over 21.4 µM.

And the TGI (RPMI-8226 leukemia)?
Its TGI is over 25 µM.

What about the GI50 (SF-539 CNS) of the same compound?
Its GI50 is 4.07 µM.

And the TGI (SF-539 CNS)?
Its TGI is over 25 µM.

And the GI50 (NCI-H23 lung)?
Its GI50 is 20.9 µM.

And the TGI (NCI-H23 lung)?
The TGI was over 25 µM.

And the GI50 (HOP-92 NSCLC)?
Its GI50 is over 25 µM.

What about the TGI (HOP-92 NSCLC) of the same compound?
Its TGI is over 25 µM.

What about the GI50 (786-0 renal) of the same compound?
The GI50 was 14 µM.

What about the TGI (786-0 renal) of the same compound?
Its TGI is over 25 µM.

What about the GI50 (MCF7 breast) of the same compound?
The GI50 was 4.19 µM.

And the TGI (MCF7 breast)?
Its TGI is over 25 µM.

What about the GI50 (CCRF-CEM leukemia) of the same compound?
The GI50 was 11.2 µM.

And the TGI (CCRF-CEM leukemia)?
The TGI was over 25 µM.

What about the GI50 (ACHN renal) of the same compound?
Its GI50 is 5.85 µM.

What about the TGI (ACHN renal) of the same compound?
The TGI was over 25 µM.

What about the GI50 (HS 578T breast) of the same compound?
The GI50 was 1.34 µM.

What about the TGI (HS 578T breast) of the same compound?
The TGI was over 25 µM.

What about the GI50 (SW-620 colon) of the same compound?
Its GI50 is 17.8 µM.

And the TGI (SW-620 colon)?
The TGI was over 25 µM.

And the GI50 (SK-MEL-5 melanoma)?
Its GI50 is 9.66 µM.

And the TGI (SK-MEL-5 melanoma)?
The TGI was over 25 µM.

And the GI50 (SK-MEL-2 melanoma)?
Its GI50 is 14.3 µM.

And the TGI (SK-MEL-2 melanoma)?
The TGI was over 25 µM.

What about the GI50 (U251 CNS) of the same compound?
Its GI50 is 10.4 µM.

What about the TGI (U251 CNS) of the same compound?
The TGI was over 25 µM.

And the GI50 (HCT-15 colon)?
The GI50 was 12.8 µM.

And the TGI (HCT-15 colon)?
Its TGI is over 25 µM.

And the GI50 (MALME-3M melanoma)?
The GI50 was over 25 µM.

What about the TGI (MALME-3M melanoma) of the same compound?
Its TGI is over 25 µM.

What about the GI50 (SK-OV-3 ovarian) of the same compound?
The GI50 was over 19 µM.

What about the TGI (SK-OV-3 ovarian) of the same compound?
Its TGI is over 25 µM.

What about the GI50 (MDA-MB-435) of the same compound?
The GI50 was 18.7 µM.

And the TGI (MDA-MB-435)?
The TGI was over 25 µM.

What about the GI50 (SNB-75 CNS) of the same compound?
The GI50 was 0.0779 µM.

What about the TGI (SNB-75 CNS) of the same compound?
The TGI was over 25 µM.

What about the GI50 (DU-145 prostate) of the same compound?
The GI50 was 19 µM.

What about the TGI (DU-145 prostate) of the same compound?
Its TGI is over 25 µM.

What about the GI50 (CAKI-1 renal) of the same compound?
Its GI50 is 13 µM.

And the TGI (CAKI-1 renal)?
Its TGI is over 25 µM.

And the GI50 (OVCAR-8 ovarian)?
The GI50 was 17.4 µM.

What about the TGI (OVCAR-8 ovarian) of the same compound?
Its TGI is over 25 µM.

And the GI50 (HCC-2998 colon)?
Its GI50 is over 25 µM.

What about the TGI (HCC-2998 colon) of the same compound?
Its TGI is over 25 µM.

And the GI50 (SR leukemia)?
The GI50 was 9.03 µM.

And the TGI (SR leukemia)?
The TGI was 24.8 µM.

And the GI50 (BT-549 breast)?
The GI50 was over 19.3 µM.

What about the TGI (BT-549 breast) of the same compound?
The TGI was over 25 µM.

What about the GI50 (PC-3 prostate) of the same compound?
The GI50 was 14.8 µM.

What about the TGI (PC-3 prostate) of the same compound?
Its TGI is over 25 µM.

What about the GI50 (A498 renal) of the same compound?
Its GI50 is 1.13 µM.

What about the TGI (A498 renal) of the same compound?
The TGI was over 6.7 µM.

And the GI50 (OVCAR-4 ovarian)?
The GI50 was over 25 µM.

What about the TGI (OVCAR-4 ovarian) of the same compound?
Its TGI is over 25 µM.

What about the GI50 (HCT-116 colon) of the same compound?
The GI50 was 7.94 µM.

And the TGI (HCT-116 colon)?
The TGI was over 25 µM.

What about the GI50 (UACC-62 melanoma) of the same compound?
Its GI50 is 12.6 µM.

And the TGI (UACC-62 melanoma)?
The TGI was over 25 µM.

And the GI50 (A549 NSCLC)?
The GI50 was 14.1 µM.

And the TGI (A549 NSCLC)?
The TGI was over 25 µM.

And the GI50 (MDA-MB-231 breast)?
The GI50 was 4.52 µM.

And the TGI (MDA-MB-231 breast)?
The TGI was over 25 µM.

What about the GI50 (K-562 leukemia) of the same compound?
Its GI50 is 8.86 µM.

And the TGI (K-562 leukemia)?
Its TGI is over 25 µM.

And the GI50 (NCI-H522 lung)?
Its GI50 is 15.5 µM.

And the TGI (NCI-H522 lung)?
Its TGI is over 25 µM.

And the GI50 (T-47D breast)?
Its GI50 is 14.3 µM.

And the TGI (T-47D breast)?
Its TGI is over 25 µM.

What about the GI50 (SF-295 CNS) of the same compound?
Its GI50 is 3.93 µM.

And the TGI (SF-295 CNS)?
The TGI was over 25 µM.

What about the GI50 (SK-MEL-28 melanoma) of the same compound?
Its GI50 is over 25 µM.

And the TGI (SK-MEL-28 melanoma)?
Its TGI is over 25 µM.

And the GI50 (SN12C renal)?
Its GI50 is 13.7 µM.

And the TGI (SN12C renal)?
Its TGI is over 25 µM.

And the GI50 (HL-60(TB) leukemia)?
The GI50 was 11.4 µM.

What about the TGI (HL-60(TB) leukemia) of the same compound?
Its TGI is over 25 µM.

And the GI50 (MOLT-4 leukemia)?
Its GI50 is 14.1 µM.

What about the TGI (MOLT-4 leukemia) of the same compound?
The TGI was over 25 µM.

And the GI50 (KM12 colon)?
The GI50 was 7.95 µM.

And the TGI (KM12 colon)?
The TGI was over 20 µM.

And the GI50 (OVCAR-5 ovarian)?
Its GI50 is over 25 µM.

What about the TGI (OVCAR-5 ovarian) of the same compound?
Its TGI is over 25 µM.

And the GI50 (HT29 colon)?
Its GI50 is 13.1 µM.

And the TGI (HT29 colon)?
Its TGI is over 25 µM.

And the GI50 (IGROV1 ovarian)?
The GI50 was over 22.4 µM.

And the TGI (IGROV1 ovarian)?
Its TGI is over 25 µM.

And the GI50 (NCI-H226 lung)?
The GI50 was 10 µM.

What about the TGI (NCI-H226 lung) of the same compound?
Its TGI is over 25 µM.

What about the GI50 (UACC-257 melanoma) of the same compound?
The GI50 was over 25 µM.

And the TGI (UACC-257 melanoma)?
The TGI was over 25 µM.

And the GI50 (COLO 205 colon)?
Its GI50 is 10.8 µM.

What about the TGI (COLO 205 colon) of the same compound?
Its TGI is over 25 µM.

And the GI50 (OVCAR-3 ovarian)?
The GI50 was 5.67 µM.

And the TGI (OVCAR-3 ovarian)?
The TGI was over 25 µM.
